Source: patent US20110190235A1, “BORON-CONTAINING SMALL MOLECULES AS ANTIPROTOZOAL AGENTS” (Anacor Pharmaceuticals, Inc., priority 2009, published 2011)
Converted amounts (≈) assume the structure as drawn. Where two headings read alike, the source gives them in different places.

Columns and labels:
[1] = test system: bloodstream-form trypanosome T. brucei brucei 427 strain; assay: Trypanosoma brucei brucei high-throughput in vitro drug sensitivity assay (resazurin); format: cell-based; settings: for Selectivity Index (L929 IC50 / T. b. brucei IC50): T. b. brucei vs L929; for IC50: Trypanosoma brucei
[2] = L929 cytotoxicity evaluation (resazurin); format: cell-based; settings: mouse, L929 mouse fibroblast cells; 72 hrs incubation; read-out: Cytotox L-929 IC50
Outline: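 Mouse L929 fibroblasts (1×10^4/mL seeding, attached overnight) were treated 72 h at 37 °C, 5% CO2 with serially diluted compounds in DMSO in D-MEM/10% FBS. Viability read by resazurin fluorescence after 3–4 h (ex 544/em 590 nm); IC50 from sigmoidal fits of single data points.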

[3] = test system: Leishmania donovani strain 1S-CL2D axenic amastigotes; assay: Leishmania donovani axenic amastigote in vitro drug sensitivity assay (resazurin); format: cell-based; settings: for Selectivity Index (Ld/L929): L. donovani vs L929; for IC50: Leishmania donovani, 72 hrs incubation
Protocol: All experiments were conducted with the axenic amastigote-form of the following parasite: Leishmania donovani strain 1S-CL2D from Sudan, World Health Organization (WHO) designation: (MHOM/SD/62/1 S-CL2D). Parasites were cultured in T-25 vented cap flasks and kept in humidified incubators at 37° C. and 5% CO2. The axenic parasite culture media was RPMI-1640/MES/pH 5.5 formulated and prepared as described by Debrabant et. al. (International Journal for Parasitology 2004, Volume 34, page 205-217). To ensure log growth phase, axenic amastigotes were sub-cultured at appropriate dilutions every 2-3 days.
Cultures of axenic amastigotes growing in the log phase were passed through a 22 gauge blunt needle to break up the clumps, diluted 1:10 in RPMI-1640/MES medium and counted using hemocytometer to determine parasite concentration. Amastigotes were diluted to 2×10^5/mL in RPMI-1640/MES medium to generate a 2-fold working concentration for assay. Compounds to be tested were serially diluted in DMSO and 0.5 μL added to 50 μL HMI-9 in triplicate 96-well plates using a Biomek NX liquid handler. Parasites from the diluted stock were added to each well (50 μL) using a Multidrop 384 dispenser to give a final concentration of 1.0×10^5/ml parasites in 0.5% for DMSO. Amastigotes were incubated with compounds for 72 hrs at 37° C. with 5% CO2. Resazurin (10 μL of 12.5 mg/ml stock) from Sigma-Aldrich was added to each well and plates were incubated for an additional 2-3 hrs. Assay plates were read using an EnVision plate reader at an excitation wavelength of 544 nm and emission of 590 nm. Triplicate data points were averaged to generate sigmoidal dose response curve and determine IC50 values using XLfit curve fitting software from IDBS (Guildford, UK).

[4] = Kinetic solubility by nephelometric (light scattering) method; format: physicochemical; settings: phosphate buffered saline, aqueous buffer, kinetic from dmso stock, PBS pH 7.4
Protocol: The kinetic solubilities of compounds were estimated using a nephelometric (light scattering) method. Briefly, compounds were serially diluted in DMSO, followed by dilution in PBS pH 7.4. After incubation, the amount of light scattered by a compound at each concentration was measured. […] At concentrations above the solubility limit, the compound precipitates and the precipitant in the well scatters the light, generating a signal. Higher levels of precipitant in a well scatter more light and produce a stronger signal.
A stock solution of compound (25 mM in DMSO) was prepared, and was serially diluted in DMSO in two-fold increments in a row of a 96 well plate to a lowest concentration of 24 μM. A duplicate plate was prepared by transfer of half of the volume of each well to a new plate. Each well containing DMSO solution of the test compound was then diluted further (1:100) with phosphate buffered saline (pH 7.4) to provide aqueous solutions of compound at the following final concentrations: 250, 125, 62.5, 31.3, 15.6, 7.8, 3.9, 2.0, 1.0, 0.5 and 0.2 μM. All liquid handling stages were performed on a Beckman Coulter Biomek NX Laboratory Automation Workstation. Each compound was diluted and tested in duplicate, providing four separate wells at each test concentration.
The test solutions of compound were incubated at room temperature for 90 minutes and then analyzed using a Thermoskan Ascent nephelometric plate reader. The nephelometer protocol included two steps: first, the plate was shaken for 60 seconds at 1200 rpm, then each well of the plate was read in succession with an 800 ms settling delay between measurements. The total measurement time for a single plate was less than 4 minutes.
The four values (in nephelometric units) obtained for each compound at each concentration were averaged and plotted on a log scale versus concentration.

[5] = Pharmacokinetic studies in mice (plasma, brain); format: in vivo; settings: for CL/F / half-life / Cmax / AUC(0-inf) / AUC(0-t): male, CD-1, mouse, 8 mg/kg, oral; for CL/F / half-life: mice (Table 3a); for CL/F: read-out: Oral Clearance Cl/F (converted); for half-life: read-out: t½ (converted); for Cmax / AUC(0-inf) / AUC(0-t): mice, normalized to 25 mg/kg (Table 3a); for AUC(0-inf): read-out: Exposure/trapezoid AUC0-inf; for AUC(0-t): read-out: Exposure/trapezoid AUC0-last; for Fold improvement 69 vs E14: AUC0-inf / Fold improvement 69 vs E14: AUC0-last / Fold improvement 69 vs E14: Cmax / Fold improvement 69 vs E14: Oral Clearance Cl/F / Fold improvement 69 vs E14: t½: mouse, in vivo, po
Protocol: Male CD-1 mice weighing approximately 25 g received the test article (E19 or 82 or E14 or 69) by either intravenous (IV), oral gavage (OG) or intra-peritoneal (IP) routes. Animals in IV group (6-10 animals, 1-2 per time point) received a single bolus injection of approximately 2 mg/kg of the test article. Animals receiving […], or as 4 repeat doses ([…], 1-2 per time point).
All doses were administered as clear colorless solutions in either: 50% (v/v) PEG400:20% (v/v) ethanol:30% (v/v) carboxymethylcellulose (0.5% w/v in sterile water for injection, WFI), or as in situ sodium salts in 5% (m/v) dextrose:2% (v/v) ethanol in DWI. All dose solutions were delivered at 4 mL/kg. Animals were fasted for at least 4 hours before dosing, and for 2 hours after dosing.
Blood samples and brain tissue were sampled from 1 or 2 animals/timepoint/group immediately before dosing and approximately 0.17, 0.5, 1, 2, 3, 4, 6, 8, 12, 18 and 24 hr after dosing for full pharmacokinetic and tissue analysis, or at 0.5, 2 and 4 hours post dosing to assess early-phase CNS disposition.
Bioanalysis for test article in whole blood, plasma or brain tissue was performed by HPLC with tandem mass spectrometry (LC-MSMS). Whole blood and plasma samples were treated with 3 volumes of either acetonitrile or methanol to precipitate plasma proteins. Treated samples were centrifuged and supernatants removed for analysis. Brain tissues were weighed and homogenized mechanically in the presence of 1 volume of phosphate-buffered saline (PBS). The resulting tissue suspensions were then diluted with a further volume of PBS, and then treated in the same manner as whole blood or plasma.
Extracted samples were assayed for test article by means of LC-MSMS employing reversed-phase chromatography coupled to a triple quadrupole mass spectrometer employing electrospray ionization in the positive ion mode. The analytical column was a Phenomenex Luna 3μ C8 50×2 mm, with an online sample purification step performed on a Phenomenex Synergi 4μ Polar RP 50×2 mm column.
Test articles were eluted using a binary mobile phase gradient comprising 5 mM Ammonium Acetate: 0.1% formic acid in either MeOH or H2O.
Non-compartmental analysis of plasma test article concentration versus time was performed in Microsoft Excel to generate pharmacokinetic parameters including: area under the curve (AUC), clearance (as Cl or Cl/F), volume of distribution (Vdss), half-life (t½), and bioavailability (F).

[6] = 72 hrs incubation, read-out: T. b. brucei IC50
[7] = 72 hrs incubation, read-out: T.b. brucei IC50
[8] = read-out: L. donovani axenic amastigotes IC50
[9] = read-out: L. donovani axenic amastigotes IC50 (ug/mL)

SMILES: CC1OB(O)c2cc(NC(=O)c3ccc(F)cc3)ccc21 (centres unmarked) [compound 3, 4-Fluoro-N-(1-hydroxy-3-methyl-1,3-dihydro-benzo[c][1,2]oxaborol-6-yl)-benzamide]
- Selectivity Index (L929 IC50 / T. b. brucei IC50) [1]: >200
- IC50 [1, 6]: 175 nM
- IC50 [1, 7]: 0.05 µg/mL
- IC50 at 72 h [2]: > 10 µg/mL
- Selectivity Index (Ld/L929) [3]: >10
- IC50 [3, 8]: 344 nM
- IC50 [3, 9]: 0.098 µg/mL
- solubility at 90 min [4]: 100 µM (≈ 28.5 µg/mL)

SMILES: CC1(C)OB(O)c2cc(NC(=O)c3ccc(F)cc3Cl)ccc21 [compound 69, 2-Chloro-4-fluoro-N-(1-hydroxy-3,3-dimethyl-1,3-dihydro-benzo[c][1,2]oxaborol-6-yl)-benzamide]
- Selectivity Index (L929 IC50 / T. b. brucei IC50) [1]: >35
- IC50 ([1]; 72 h, read-out: T. b. brucei IC50 (nM)): 845 nM
- IC50 ([1]; 72 h, read-out: T.b. brucei IC50 (ug/mL)): 0.282 µg/mL
- IC50 at 72 h [2]: > 10 µg/mL
- CL/F ([5]; brain): 20 mL/min/kg
- half-life ([5]; brain): 1.4 h
- Cmax ([5]; brain): 3250 ng/mL
- AUC(0-inf) ([5]; brain): 21300 ng·h/mL
- AUC(0-t) ([5]; brain): 20800 ng·h/mL
- CL/F ([5]; plasma): 7.32 mL/min/kg
- half-life ([5]; plasma): 3.7 h
- Cmax ([5]; plasma): 7670 ng/mL
- AUC(0-inf) ([5]; plasma): 58000 ng·h/mL
- AUC(0-t) ([5]; plasma): 56900 ng·h/mL
- Fold improvement 69 vs E14: AUC0-inf ([5]; in brain): 6.8 fold
- Fold improvement 69 vs E14: AUC0-last ([5]; in brain): 6.7 fold
- Fold improvement 69 vs E14: Cmax ([5]; in brain): 1.3 fold
- Fold improvement 69 vs E14: Oral Clearance Cl/F ([5]; in brain): 6.7 fold
- Fold improvement 69 vs E14: t½ ([5]; in brain): 0.9 fold
- Fold improvement 69 vs E14: AUC0-inf ([5]; in plasma): 3.8 fold
- Fold improvement 69 vs E14: AUC0-last ([5]; in plasma): 4.0 fold
- Fold improvement 69 vs E14: Cmax ([5]; in plasma): 2.1 fold
- Fold improvement 69 vs E14: Oral Clearance Cl/F ([5]; in plasma): 3.9 fold
- Fold improvement 69 vs E14: t½ ([5]; in plasma): 1.2 fold
- solubility at 90 min [4]: 100 µM (≈ 33.4 µg/mL)

SMILES: COc1ccc(C(=O)Nc2ccc3c(c2)B(O)OC3C)cc1 (centres unmarked) [compound 5, N-(1-Hydroxy-3-methyl-1,3-dihydro-benzo[c][1,2]oxaborol-6-yl)-4-methoxy-benzamide]
- Selectivity Index (L929 IC50 / T. b. brucei IC50) [1]: >185
- IC50 [1, 6]: 182 nM
- IC50 [1, 7]: 0.054 µg/mL
- IC50 at 72 h [2]: > 10 µg/mL
- Selectivity Index (Ld/L929) [3]: >93
- IC50 [3, 8]: 360 nM
- IC50 [3, 9]: 0.107 µg/mL
- solubility at 90 min [4]: 100 µM (≈ 29.7 µg/mL)

SMILES: CC1OB(O)c2cc(NC(=O)c3ccc(F)cc3C(F)(F)F)ccc21 (centres unmarked) [compound 1]
- Selectivity Index (L929 IC50 / T. b. brucei IC50) [1]: 13
- IC50 [1, 6]: 258 nM
- IC50 [1, 7]: 0.091 µg/mL
- IC50 at 72 h [2]: 1.21 µg/mL (≈ 3.43 µM)
- Selectivity Index (Ld/L929) [3]: 7
- IC50 [3, 8]: 524 nM
- IC50 [3, 9]: 0.185 µg/mL
- solubility at 90 min [4]: 50 µM (≈ 17.7 µg/mL)

SMILES: CC1OB(O)c2cc(NC(=O)c3ccccc3Cl)ccc21 (centres unmarked) [compound 4, 2-Chloro-N-(1-hydroxy-3-methyl-1,3-dihydro-benzo[c][1,2]oxaborol-6-yl)-benzamide]
- Selectivity Index (L929 IC50 / T. b. brucei IC50) [1]: 52
- IC50 [1, 6]: 80 nM
- IC50 [1, 7]: 0.024 µg/mL
- IC50 at 72 h [2]: 1.24 µg/mL (≈ 4.11 µM)
- Selectivity Index (Ld/L929) [3]: 9
- IC50 [3, 8]: 458 nM
- IC50 [3, 9]: 0.138 µg/mL
- solubility at 90 min [4]: > 200 µM

SMILES: O=C(Nc1ccc2c(c1)B(O)OC2C1CCCC1)c1ccccc1C(F)(F)F (centres unmarked) [compound 17, N-(3-Cyclopentyl-1-hydroxy-1,3-dihydro-benzo[c][1,2]oxaborol-6-yl)-2-trifluoromethyl-benzamide]
- Selectivity Index (L929 IC50 / T. b. brucei IC50) [1]: >15
- IC50 [1, 6]: 1680 nM
- IC50 [1, 7]: 0.655 µg/mL
- IC50 at 72 h [2]: > 10 µg/mL
- solubility at 90 min [4]: 25 µM (≈ 9.73 µg/mL)

SMILES: CC1(C)OB(O)c2cc(NC(=O)c3ccccc3)ccc21 [compound 26, N-(1-Hydroxy-3,3-dimethyl-1,3-dihydro-benzo[c][1,2]oxaborol-6-yl)-benzamide]
- IC50 [1, 7]: > 5 µg/mL
- IC50 at 72 h [2]: > 10 µg/mL
- solubility at 90 min [4]: 200 µM (≈ 56.2 µg/mL)
